# Measurements: patent US20200031820A1, “3-CARBOXYLIC ACID PYRROLES AS NRF2 REGULATORS” (GLSXOSMITHKLINE INTELLECTUAL PROPERTY DEVELOPMENT LIMITED, priority 2016, published 2020)
# Target: T1, full length NRF2 protein and full length Keap1 protein (Homo sapiens, UniProt Q14145)
# T1 construct: full length NRF2 protein and full length Keap1 protein; His
# Assay: NRF2-Keap1 TR-FRET Low Protein Assay
# Assay type: binding
# Details: Keap1 FlagHis, biotin-NRF2
# Source text: NRF2-Keap1 TR-FRET Low Protein Assay In the NRF2-Keap1 TR-FRET (time-resolved fluorescence resonance energy transfer) low protein assay, full length NRF2 protein and full length Keap1 protein (Keap1 exists a dimer) are used. The assay detects a compound's ability to displace the binding of Keap1 FlagHis with biotinylated Avi-NRF2 protein. Biotin-NRF2 binds to streptavidin-europium (a component of the detection mix) and Keap1 FlagHis is recognized by anti-Flag APC (allophycocyanin) antibody (also a component of the detection mix). If binding occurs between the two proteins, there will be an energy transfer from the Eu+3 (donor) at 615 nm to the APC (acceptor) at 665 nm. A potential NRF2 inhibitor will cause a reduction in the TR-FRET signal by interfering with the binding of Keap1 to NRF2.
# Ten nanoliters of 100× compound dose response curves (serial 3-fold dilutions) in DMSO were stamped using an Echo liquid handling system (Labcyte) into 384-well, low volume, black assay plates (Greiner, #784076), with DMSO in columns 6 and 18. An additional 90 nl DMSO was added to each well, to bring the total volume to 100 nl per well. The top concentration of compound was located in columns 1 and 13, with the serial dilutions going across the row. All reagents were diluted in assay buffer (50 mM Tris, pH 8.0, 5 mM MgCl2, 100 mM NaCl, 0.005% BSA, 1 mM DTT, and 2 mM CHAPS. The BSA, DTT, and CHAPS were added to the assay buffer on the day of assay. Using a Multidrop Combi (Thermo Electron Corporation) equipped with a metal tip dispenser, 5 ul of 1.25 nM Keap1 FlagHis protein was added to all wells of the compound plate, with the exception of the wells in column 18. Wells in column 18 received 5 ul of assay buffer instead. Plates were centrifuged at 500 rpm for 1 minute, covered with a plate lid, and incubated at 37° C. for 2.25 hours. Plates were then removed from the incubator and allowed to cool to RT for 15 minutes. Five microliters of 2.5 nM biotin-NRF2 protein was then added to all wells of the plates and the plates were spun at 500 rpm for 1 minute, followed by incubating at 4° C. for 1.25 hours. The plates were then allowed to warm to RT for 15 minutes, followed by the addition of 10 ul of detection mix (1 nM Streptavidin Eu+ W1024 and 5 ug/ml mouse anti-DYKDDDDK IgG conjugated to SureLight APC antibody; both from Columbia Biosciences) to all wells. Plates were spun at 500 rpm for 1 minute, incubated for 1 hour at RT, and read on an Envision plate reader using a 320 nm excitation filter and 615 nm and 665 nm emission filters. Compound response (% inhibition) and potency (pIC50) were calculated based on the ratio of the two emissions (665 nm/615 nm) and then the transformed data is normalized against controls in the assay (control 1=1% DMSO in the presence of NRF2 and Keap1 protein and control 2=1% DMSO in the presence of only the NRF2 protein). Data analysis was handled using the software package Abase XE (Surrey, United Kingdom). The % inhibition values were calculated from the ratio (transformed) data by the equation:
# 100−(100*(compound response−average control 2)/(average control 1−average control2)).
# For calculation of pIC50s, Abase XE used a four-parameter equation.
# IC50s<10 nM (+++++), IC50s 10-100 nM (++++), IC50s 100 nM-1 uM (+++), IC50s 1-10 uM (++). & IC50s 10 uM-100 uM (+), IC50s >100 uM (−), or were not determined (ND).
# T1 sequence (Q14145 whole entry): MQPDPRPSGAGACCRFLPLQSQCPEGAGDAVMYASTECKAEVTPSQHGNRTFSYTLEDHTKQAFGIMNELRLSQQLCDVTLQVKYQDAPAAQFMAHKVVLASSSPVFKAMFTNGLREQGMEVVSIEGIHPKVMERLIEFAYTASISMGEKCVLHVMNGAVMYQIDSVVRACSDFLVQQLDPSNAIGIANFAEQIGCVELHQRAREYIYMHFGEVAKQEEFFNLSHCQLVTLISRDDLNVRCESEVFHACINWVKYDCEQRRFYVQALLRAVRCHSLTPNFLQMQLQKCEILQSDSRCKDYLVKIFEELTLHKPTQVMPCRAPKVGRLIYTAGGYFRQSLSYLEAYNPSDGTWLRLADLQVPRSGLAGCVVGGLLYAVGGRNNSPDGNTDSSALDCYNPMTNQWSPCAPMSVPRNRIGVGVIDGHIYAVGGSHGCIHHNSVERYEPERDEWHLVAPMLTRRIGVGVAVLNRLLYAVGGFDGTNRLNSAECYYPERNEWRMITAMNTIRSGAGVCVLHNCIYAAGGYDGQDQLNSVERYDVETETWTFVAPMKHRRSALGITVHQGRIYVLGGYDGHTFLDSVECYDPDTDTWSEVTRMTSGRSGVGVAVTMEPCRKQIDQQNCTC
row,Structure (SMILES),EC50
1,Cn1cc([C@@H]2C[C@H]2c2c(C(=O)O)ccn2-c2cccc(CN3Cc4cc(Br)ccc4OC(C)(C)C3)c2)nn1 (racemic) [Example 20],100 to 1000 nM
2,"Cc1ccc(CN2C[C@@H](C)Cc3ccc(C(F)(F)F)cc3S2(=O)=O)cc1-n1ccc(C(=O)O)c1[C@@H]1C[C@H]1c1cn(C)nn1 (racemic) [Example 11, rac-2-(trans-2-(1-methyl-1H-1,2,3-triazol-4-yl)cyclopropyl)-1-(2-methyl-5-(((S)-4-methyl-1,1-dioxido-8-(trifluoromethyl)-4,5-dihydrobenzo[f][1,2]thiazepin-2(3H)-yl)methyl)phenyl)-1H-pyrrole-3-carboxylic acid]",1000 to 10000 nM
3,"C[C@H]1Cc2ccc(C(F)(F)F)cc2S(=O)(=O)N(Cc2cccc(-n3ccc(C(=O)O)c3[C@@H]3C[C@H]3c3cn(C)nn3)c2)C1 (racemic) [Example 1, 1-(3-(((S)-4-Methyl-1,1-dioxido-8-(trifluoromethyl)-4,5-dihydrobenzo[f]-[1,2]thiazepin-2(3H)-yl)methyl)phenyl)-2-(trans-2-(1-methyl-1H-1,2,3-triazol-4-yl)cyclopropyl)-1H-pyrrole-3-carboxylic acid]",10 to 100 nM
4,"CCCC[C@H]1Cc2ccc(C(F)(F)F)cc2S(=O)(=O)N(Cc2cccc(-n3ccc(C(=O)O)c3[C@@H]3C[C@H]3c3cn(C)nn3)c2)C1 [Example 6, 1-(3-(((S)-4-butyl-1,1-dioxido-8-(trifluoromethyl)-4,5-dihydrobenzo[f][1,2]thiazepin-2(3H)-yl)methyl)phenyl)-2-((1R,2R)-2-(1-methyl-1H-1,2,3-triazol-4-yl)cyclopropyl)-1H-pyrrole-3-carboxylic acid]",10 to 100 nM
5,"C[C@H](Oc1cccc(-c2cccc(-n3ccc(C(=O)O)c3[C@H]3C[C@@H]3c3cn(C)nn3)c2)c1)C1CCCCC1 [Example 17, 1-(3′-((S)-1-cyclohexylethoxy)-[1,1′-biphenyl]-3-yl)-2-((1S,2S)-2-(1-methyl-1H-1,2,3-triazol-4-yl)cyclopropyl)-1H-pyrrole-3-carboxylic acid]",100 to 1000 nM
6,"C[C@H]1Cc2ccc(C(F)(F)F)cc2S(=O)(=O)N(C2CCc3c2cccc3-n2ccc(C(=O)O)c2C2CC2)C1 (mixture of isomers) [Example 12, 2-Cyclopropyl-1-(1-((S)-4-methyl-1,1-dioxido-8-(trifluoromethyl)-4,5-dihydrobenzo[f][1,2]thiazepin-2(3H)-yl)-2,3-dihydro-1H-inden-4-yl)-1H-pyrrole-3-carboxylic acid]",10000 to 100000 nM
7,"Cc1c(CN2C[C@@H](C)Cc3ccc(C(F)(F)F)cc3S2(=O)=O)cccc1-n1ccc(C(=O)O)c1[C@@H]1C[C@H]1c1cn(C)nn1 (racemic) [Example 10, rac-2-(trans-2-(1-methyl-1H-1,2,3-triazol-4-yl)cyclopropyl)-1-(2-methyl-3-(((S)-4-methyl-1,1-dioxido-8-(trifluoromethyl)-4,5-dihydrobenzo[f][1,2]thiazepin-2(3H)-yl)methyl)phenyl)-1H-pyrrole-3-carboxylic acid]",100 to 1000 nM
8,"C[C@H](Oc1cccc(-c2cccc(-n3ccc(C(=O)O)c3[C@@H]3C[C@H]3c3cn(C)nn3)c2)c1)C1CCCCC1 (racemic) [Example 13, 1-(3′-((S)-1-Cyclohexylethoxy)-[1,1′-biphenyl]-3-yl)-2-(trans-2-(1-methyl-1H-1,2,3-triazol-4-yl)cyclopropyl)-1H-pyrrole-3-carboxylic acid]",100 to 1000 nM
9,CCC[C@@H]1CCCCN1C(=O)c1cccc(-c2cccc(-n3ccc(C(=O)O)c3[C@@H]3C[C@H]3c3cn(C)nn3)c2)c1C(F)(F)F [Example 24],1000 to 10000 nM
10,CCC[C@@H]1CCCCN1C(=O)c1cccc(-c2cccc(-n3ccc(C(=O)O)c3[C@@H]3C[C@H]3c3cn(C)nn3)c2)c1Br [Example 22],10 to 100 nM
11,"CCC[C@@H]1CCCCN1C(=O)c1cccc(-c2cccc(-n3ccc(C(=O)O)c3[C@@H]3C[C@H]3c3cn(C)nn3)c2)c1F (racemic) [Example 15, 1-(2′-fluoro-3′-((R)-2-propylpiperidine-1-carbonyl)-[1,1′-biphenyl]-3-yl)-2-(trans-2-(1-methyl-1H-1,2,3-triazol-4-yl)cyclopropyl)-1H-pyrrole-3-carboxylic acid]",10 to 100 nM
12,"C[C@H]1Cc2cc(C(F)(F)F)ccc2S(=O)(=O)N(Cc2cccc(-n3ccc(C(=O)O)c3[C@@H]3C[C@H]3c3cn(C)nn3)c2)C1 (racemic) [Example 2, 1-(3-(((S)-4-methyl-1,1-dioxido-7-(trifluoromethyl)-4,5-dihydrobenzo[f][1,2]thiazepin-2(3H)-yl)methyl)phenyl)-2-(trans-2-(1-methyl-1H-1,2,3-triazol-4-yl)cyclopropyl)-1H-pyrrole-3-carboxylic acid]",10 to 100 nM
13,"C[C@H]1Cc2ccc(Br)cc2S(=O)(=O)N(Cc2cccc(-n3ccc(C(=O)O)c3[C@@H]3C[C@H]3c3cn(C)nn3)c2)C1 [Example 8, 1-(3-(((S)-8-bromo-4-methyl-1,1-dioxido-4,5-dihydrobenzo[f][1,2]thiazepin-2(3H)-yl)methyl)phenyl)-2-((1R,2R)-2-(1-methyl-1H-1,2,3-triazol-4-yl)cyclopropyl)-1H-pyrrole-3-carboxylic acid]",10 to 100 nM
14,"CC[C@H]1Cc2ccc(Br)cc2S(=O)(=O)N(Cc2cccc(-n3ccc(C(=O)O)c3[C@@H]3C[C@H]3c3cn(C)nn3)c2)C1 [Example 9, 1-(3-(((S)-8-bromo-4-ethyl-1,1-dioxido-4,5-dihydrobenzo[f][1,2]thiazepin-2(3H)-yl)methyl)phenyl)-2-((1R,2R)-2-(1-methyl-1H-1,2,3-triazol-4-yl)cyclopropyl)-1H-pyrrole-3-carboxylic acid]",< 10 nM
15,Cn1cc([C@@H]2C[C@H]2c2c(C(=O)O)ccn2-c2cccc(CN3Cc4cc(F)ccc4OC(C)(C)C3)c2)nn1 (racemic) [Example 19],100 to 1000 nM
16,CCC[C@@H]1CCCCN1C(=O)c1cc(F)cc(-c2cccc(-n3ccc(C(=O)O)c3[C@@H]3C[C@H]3c3cn(C)nn3)c2)c1 [Example 23],10 to 100 nM
17,Cn1cc([C@@H]2C[C@H]2c2c(C(=O)O)ccn2-c2cccc(CN3Cc4ccccc4CC(C)(C)C3)c2)nn1 (racemic) [Example 21],100 to 1000 nM
18,"CC[C@H]1Cc2cc(C(F)(F)F)ccc2S(=O)(=O)N(Cc2cccc(-n3ccc(C(=O)O)c3[C@@H]3C[C@H]3c3cn(C)nn3)c2)C1 [Example 7, 1-(3-(((S)-4-ethyl-1,1-dioxido-7-(trifluoromethyl)-4,5-dihydrobenzo[f][1,2]thiazepin-2(3H)-yl)methyl)phenyl)-2-((1R,2R)-2-(1-methyl-1H-1,2,3-triazol-4-yl)cyclopropyl)-1H-pyrrole-3-carboxylic acid]",10 to 100 nM
19,"CCC[C@@H]1CCCCN1C(=O)c1cccc(-c2cccc(-n3ccc(C(=O)O)c3[C@@H]3C[C@H]3c3cn(C)nn3)c2)c1 (racemic) [Example 14, 2-(trans-2-(1-methyl-1H-1,2,3-triazol-4-yl)cyclopropyl)-1-(3′-((R)-2-propylpiperidine-1-carbonyl)-[1,1′-biphenyl]-3-yl)-1H-pyrrole-3-carboxylic acid]",10 to 100 nM
20,"CCCC[C@H]1Cc2ccccc2S(=O)(=O)N(Cc2cccc(-n3ccc(C(=O)O)c3[C@@H]3C[C@H]3c3cn(C)nn3)c2)C1 [Example 3, 1-(3-(((S)-4-butyl-1,1-dioxido-4,5-dihydrobenzo[f][1,2]thiazepin-2(3H)-yl)methyl)phenyl)-2-((1R,2R)-2-(1-methyl-1H-1,2,3-triazol-4-yl)cyclopropyl)-1H-pyrrole-3-carboxylic acid]",10 to 100 nM
